The test system of the test is conscious rat. Nature of the test: Antihypertensive evaluation (AHP3): aortic blood pressure and heart rate. In kind it is in vivo. The note with it: for Mμ.c. ↓ / HR ↑: conscious rat; for Mμ.c. ↓: decrease in mean arterial blood pressure; for HR ↑: heart rate increase.

As to `OC[C@H]1O[C@@H](n2cnc3c(NCC(c4ccccc4)c4ccccc4)ncnc32)[C@H](O)[C@@H]1O` [Example 1, N^6-(2,2-Diphenylethyl)adenosine], the “Mμ.c. ↓” value is, setting by setting: (1 mg/kg) 16%; (3 mg/kg) 20%; (10 mg/kg) 20%; (30 mg/kg) 35%. Also, the “HR ↑” value runs as follows: (1 mg/kg) <20%; (3 mg/kg) <20%; (10 mg/kg) <20%; (30 mg/kg) <20%. Moreover, the minimal effective dose (Rattus norvegicus, read-out: AHP3 BP LAD) turned out to be 1 mg/kg.
